Reference: paper PMC8245786, “Comparative Studies on Multi-Component Pharmacokinetics of Polygonum multiflorum Thunb Extract After Oral Administration in Different Rat Models” (Frontiers in Pharmacology, 2021)

Key:
NTCP = assay: Expression level of NTCP in rat liver (UHPLC-MS/MS signature peptide) and correlation with AUC; format: in vivo; conditions: before administration of AE-PM
Text: (§1) The detection method for UGT1A1 and nine other transporter proteins in the liver was comprehensively investigated in our study (35).
An Agilent 1290 Infinity series UHPLC system coupled to an Agilent 6460 series MS/MS system (Agilent Technologies, Santa Clara, CA, United States) was applied to quantitate the signature peptides in ESI positive ionization mode. […] The sequence of characteristic peptides that corresponded to UGT1A1 and the other nine transporter proteins were based on our previous experiments and listed in Table 3 .
(§2) Total membrane protein was isolated (in triplicate) from liver tissue samples according to the Native Membrane Protein Extraction Kit protocol. Subsequently, protein concentrations were determined by the BCA Protein Assay Kit. 10 µl of 5 mg/ml (or lower concentration) of a hepatocyte membrane protein incubated with 20 µl of dithiothreitol (100 mM) and 50 µl of ammonium bicarbonate buffer (50 mM, pH 7.8). After incubation at 95°C for 5 min, 20 µl of iodoacetamide (20 mM) was added to the mixture, followed by incubation at 37°C for 20 min in the dark. To concentrate the samples, ice-cold methanol (0.5 ml), chloroform (0.2 ml), and water (0.2 ml) were added. […]

UGT1A1 = assay: Expression level of UGT1A1 in rat liver (UHPLC-MS/MS signature peptide) and correlation with AUC; format: in vivo; conditions: before administration of AE-PM
Procedure: as §1
(§3) The sequence of characteristic peptides that corresponded to UGT1A1 and the other nine transporter proteins were based on our previous experiments and listed in Table 3 .
as §2, with “added. After centrifugation at 4°C for 5 min at 16,000 g, the supernatant was discarded and the pellet was washed once with ice-cold methanol (0.25 ml) and resuspended with 40 µl of reconstitution solution (equal volume of 3% sodium deoxycholate (w/v) and 5 mM ammonium bicarbonate buffer). Finally, the protein sample was digested with 10 µl of trypsin. The protein-to-trypsin ratio was 25:1 (w/w).” for “added.”

MDR1 = assay: Expression level of MDR1 in rat liver (UHPLC-MS/MS signature peptide) and correlation with AUC; format: in vivo; conditions: before administration of AE-PM
Procedure: as §1, §3
as §2, with “added. After centrifugation at 4°C for 5 min at 16,000 g, the supernatant was discarded and the pellet was washed once with ice-cold methanol (0.25 ml) and resuspended with 40 µl of reconstitution solution (equal volume of 3% sodium deoxycholate (w/v) and 5 mM ammonium bicarbonate buffer). Finally, the protein sample was digested with 10 µl of trypsin. The protein-to-trypsin ratio was 25:1 (w/w).” for “added.”

OCT1 = assay: Expression level of OCT1 in rat liver (UHPLC-MS/MS signature peptide) and correlation with AUC; format: in vivo; conditions: before administration of AE-PM
Procedure: as §1, §3
as §2, with “added. After centrifugation at 4°C for 5 min at 16,000 g, the supernatant was discarded and the pellet was washed once with ice-cold methanol (0.25 ml) and resuspended with 40 µl of reconstitution solution (equal volume of 3% sodium deoxycholate (w/v) and 5 mM ammonium bicarbonate buffer). Finally, the protein sample was digested with 10 µl of trypsin. The protein-to-trypsin ratio was 25:1 (w/w).” for “added.”

OATP1A4 = assay: Expression level of OATP1A4 in rat liver (UHPLC-MS/MS signature peptide) and correlation with AUC; format: in vivo; conditions: before administration of AE-PM
Procedure: as §1, §3
as §2, with “added. After centrifugation at 4°C for 5 min at 16,000 g, the supernatant was discarded and the pellet was washed once with ice-cold methanol (0.25 ml) and resuspended with 40 µl of reconstitution solution (equal volume of 3% sodium deoxycholate (w/v) and 5 mM ammonium bicarbonate buffer). Finally, the protein sample was digested with 10 µl of trypsin. The protein-to-trypsin ratio was 25:1 (w/w).” for “added.”

[1] = Serum biochemistry in ANIT and CCl4 liver injury model rats; format: in vivo, rat; conditions: 24 h after model induction; before AE-PM
Procedure: Additionally, group 3 represented the CCl4-induced hepatocytes injury model, which was treated with pure CCl4 (5 ml/kg, s. c.) on day 0, 50% CCl4 (diluted in olive oil) (3 ml/kg, s. c.) on day 3, and 20% CCl4 (diluted in olive oil) (3 ml/kg, s. c.) on day 6. After 24 h, five rats selection for serum and liver collection from each of the three groups. Blood samples were collected in a coagulation tube, and were centrifuged at 4°C for 15 min (4,000 rpm), The resultant serum was used for the ALT, AST, TBIL, DBIL, TBA and ALP assays. Liver samples were dissected and stored at −80°C for further analysis, whereas the central part of the right large lobe of the liver was used for histological examination.

BSEP = assay: Expression level of BSEP in rat liver (UHPLC-MS/MS signature peptide) and correlation with AUC; format: in vivo; conditions: before administration of AE-PM
Procedure: as §1, §3
as §2, with “added. After centrifugation at 4°C for 5 min at 16,000 g, the supernatant was discarded and the pellet was washed once with ice-cold methanol (0.25 ml) and resuspended with 40 µl of reconstitution solution (equal volume of 3% sodium deoxycholate (w/v) and 5 mM ammonium bicarbonate buffer). Finally, the protein sample was digested with 10 µl of trypsin. The protein-to-trypsin ratio was 25:1 (w/w).” for “added.”

Row | SMILES | Reduction of NTCP expression level compared with the control group (NTCP) [%] | Reduction of UGT1A1 expression level compared with the control group (UGT1A1) [%] | Reduction of MDR1 expression level compared with the control group (MDR1) [%] | Reduction of OCT1 expression level compared with the control group (OCT1) [%] | Reduction of OATP1A4 expression level compared with the control group (OATP1A4) [%] | Increase of serum ALT compared with the control group [1] [folds] | Increase of serum AST compared with the control group [1] [folds] | Reduction of BSEP expression level compared with the control group (BSEP) [%]
1 | S=C=Nc1cccc2ccccc12 [ANIT, alpha-naphthylisothiocyanate] | 38.02 |  |  |  |  |  |  | 
2 | ClC(Cl)(Cl)Cl [CCl4, Carbon tetrachloride] | 15.75 | 31.18 | 34.15 | 22.30 | 46.11 | 4.45 | 2.68 | 26.92
